Measurements taken from patent publication US11512053B2, “Arginine methyltransferase inhibitors and uses thereof” (priority 2013, dated 2022).

These molecules were tested against T1, human CARM1 (PRMT4) (Flag- and His-tagged) (Homo sapiens, UniProt Q86X55) (assay: CARM1 Biochemical Assay (3H-SAM Flashplate, peptide substrate)). Conditions: not given.
T1 construct: Flag-CARM1-His; made in house; host or cells: HEK 293F cells (BacMam baculovirus)
T1 sequence (Q86X55 1-585 isoform Q86X55-1): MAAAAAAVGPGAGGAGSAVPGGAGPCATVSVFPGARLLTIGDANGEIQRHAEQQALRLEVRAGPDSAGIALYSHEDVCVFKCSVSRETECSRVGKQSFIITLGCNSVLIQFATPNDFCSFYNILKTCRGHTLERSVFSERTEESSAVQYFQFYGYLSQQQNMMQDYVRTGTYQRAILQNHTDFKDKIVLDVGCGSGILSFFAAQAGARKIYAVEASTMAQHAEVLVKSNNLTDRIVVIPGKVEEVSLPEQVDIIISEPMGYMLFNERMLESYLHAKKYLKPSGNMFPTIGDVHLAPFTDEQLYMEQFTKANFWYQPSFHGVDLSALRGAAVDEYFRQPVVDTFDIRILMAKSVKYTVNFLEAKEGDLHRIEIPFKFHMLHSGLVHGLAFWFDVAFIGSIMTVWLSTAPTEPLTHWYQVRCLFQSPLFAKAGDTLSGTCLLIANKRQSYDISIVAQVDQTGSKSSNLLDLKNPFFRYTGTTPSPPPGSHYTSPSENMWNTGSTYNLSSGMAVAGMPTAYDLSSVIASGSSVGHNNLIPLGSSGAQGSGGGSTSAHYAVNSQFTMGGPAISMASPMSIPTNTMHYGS
Description: General Materials. S-adenosylmethionine (SAM), S-adenosylhomocysteine (SAH), bicine, Tween20, dimethylsulfoxide (DMSO), bovine skin gelatin (BSG), sodium butyrate and Tris(2-carboxyethyl)phosphine hydrochloride solution (TCEP) were purchased from Sigma-Aldrich at the highest level of purity possible. ^3H-SAM was purchase from American Radiolabeled Chemicals with a specific activity of 80 Ci/mmol. 384-well streptavidin Flashplates were purchased from PerkinElmer.
Substrates. Peptide representative of human histone H3 residues 16-30 was synthesized with an N-terminal linker-affinity tag motif and a C-terminal amide cap by 21st Century Biochemicals. The peptide was purified by high-performance liquid chromatography (HPLC) to greater than 95% purity and confirmed by liquid chromatography mass spectrometry (LC-MS). The sequence was Biot-Ahx-[…]-amide and contained a monomethylated arginine at position 26 (SEQ ID NO.:14).
Molecular Biology: Human CARM1 (PRMT4) (NM_199141.1) transcript clone was amplified from an HEK 293 cDNA library, incorporating a flanking 5′ sequence encoding a FLAG tag ([…]) (SEQ ID NO.:6) fused directly to Ala 2 of CARM1 and 3′ sequence encoding a hexa His sequence ([…]) (SEQ ID NO.:15) fused directly to Ser 608. The gene sequence encoding isoform1 containing a deletion of amino acids 539-561 was amplified subsequently and subcloned into pFastBacMam (Viva Biotech).
Protein Expression. Recombinant baculovirus were generated according to Bac-to-Bac kit instructions (Life Technologies). […] Infections were carried out at 37° C. for 48 hours, harvested by centrifugation, and stored at −80° C. for purification.
Protein Purification. […] Column was washed with 500 mM NaCl in buffer A and Flag-CARM1-His was eluted with 200 ug/ml FLAG peptide in buffer A. Pooled fractions were dialyzed in 20 mM Tris, 150 mM NaCl, 5% glycerol and 1 mM DTT, pH 7.8. The purity of recovered protein was 94.
General Procedure for CARM1 Enzyme Assays on Peptide Substrates. The assays were all performed in a buffer consisting of 20 mM Bicine (pH=7.6), 1 mM TCEP, 0.005% BSG, and 0.002% Tween 20, prepared on the day of use. Compounds in 100% DMSO (1 ul) were spotted into a polypropylene 384-well V-bottom plates (Greiner) using a Platemate Plus outfitted with a 384-channel head (Thermo Scientific). DMSO (1 ul) was added to Columns 11, 12, 23, 24, rows A-H for the maximum signal control and 1 ul of SAH, a known product and inhibitor of CARM1, was added to columns 11, 12, 23, 24, rows I-P for the minimum signal control. A cocktail (40 ul) containing the CARM1 enzyme was added by Multidrop Combi (Thermo-Fisher). The compounds were allowed to incubate with CARM1 for 30 min at room temperature, then a cocktail (10 ul) containing ^3H-SAM and peptide was added to initiate the reaction (final volume=51 ul). The final concentrations of the components were as follows: CARM1 was 0.25 nM, ^3H-SAM was 30 nM, peptide was 250 nM, SAH in the minimum signal control wells was 1 mM, and the DMSO concentration was 2%. The assays were stopped by the addition of non-radiolabeled SAM (10 ul) to a final concentration of 300 uM, which dilutes the ^3H-SAM to a level where its incorporation into the peptide substrate is no longer detectable. 50 ul of the reaction in the 384-well polypropylene plate was then transferred to a 384-well Flashplate and the biotinylated peptides were allowed to bind to the streptavidin surface for at least 1 hour before being washed once with 0.1% Tween20 in a Biotek ELx405 plate washer. The plates were then read in a PerkinElmer TopCount plate reader to measure the quantity of ^3H-labeled peptide bound to the Flashplate surface, measured as disintegrations per minute (dpm) or alternatively, referred to as counts per minute (cpm).
Where dpm=disintegrations per minute, cmpd=signal in assay well, and min and max are the respective minimum and maximum signal controls. […]

`CC(C)c1n[nH]cc1CN(C)CCN` [Compound 21] was tested. Which IC50 did it give?
The IC50 was over 10 µM.

With `CN(CCN)Cc1c[nH]nc1C1=CCOCC1` [Compound 10] as the molecule, how does the IC50 read?
The IC50 was over 10 µM.

With `CN(CCN)Cc1c[nH]nc1C1CC1` [Compound 12] as the molecule, how does the IC50 read?
The IC50 was over 10 µM.

Same assay, conditions: single experiment or average of multiple experiments

For `COc1cccc(/C=C/c2n[nH]cc2CN(C)CCN)c1` [Compound 17], which IC50 is on record?
The IC50 was 0.09 µM.

For `CNCCN(C)Cc1c[nH]nc1C#Cc1ccc(C(C)(C)C)cc1` [Compound 2], which IC50 is on record?
The IC50 was 0.11 µM.

`CN(CCN)Cc1c[nH]nc1/C=C/c1cc(C(F)(F)F)cc(C(F)(F)F)c1` [Compound 14] was tested. Which IC50 did it give?
The IC50 was 0.51 µM.

With `Cc1ccc(/C=C/c2n[nH]cc2CN(C)CCN)cc1` [Compound 8] as the molecule, how does the IC50 read?
The IC50 was 0.37 µM.

With `CN(CCN)Cc1c[nH]nc1/C=C/c1ccc(F)cc1F` [Compound 13] as the molecule, how does the IC50 read?
Its IC50 is 0.2 µM.

`CN(CCN)Cc1c[nH]nc1C1CCCCC1` [Compound 22] was tested. Which IC50 did it give?
Its IC50 is 3.77 µM.

With `COC/C=C/c1n[nH]cc1CN(C)CCN` [Compound 19] as the molecule, how does the IC50 read?
The IC50 was 3.78 µM.

For `CN(CCN)Cc1c[nH]nc1/C=C/c1cccc(F)c1` [Compound 20], which IC50 is on record?
Its IC50 is 0.25 µM.

`CNCCN(C)Cc1c[nH]nc1/C=C/c1ccc(C(F)(F)F)cc1` [Compound 6] was tested. Which IC50 did it give?
Its IC50 is 0.57 µM.

`CNCCN(C)Cc1c[nH]nc1C#Cc1cccc(OC)c1` [Compound 1] was tested. Which IC50 did it give?
The IC50 was 0.26 µM.

With `CN(CCN)Cc1c[nH]nc1/C=C/c1ccc(C(F)(F)F)cc1` [Compound 18] as the molecule, how does the IC50 read?
The IC50 was 0.1 µM.

How did the IC50 turn out when `CN(CCN)Cc1c[nH]nc1/C=C/c1cc(F)cc(F)c1` [Compound 15] was run?
Its IC50 is 0.31 µM.

For `CC(C)c1n[nH]cc1CN(C)CCN` [Compound 21], which IC50 is on record?
The IC50 was over 10 µM.

With `CN(CCN)Cc1c[nH]nc1C1=CCOCC1` [Compound 10] as the molecule, how does the IC50 read?
The IC50 was over 10 µM.

Which IC50 does the source give for `CN(CCN)Cc1c[nH]nc1C1CC1` [Compound 12] here?
The IC50 was over 10 µM.

For `CN(CCN)Cc1c[nH]nc1CCc1ccc(F)cc1` [Compound 23, N^1-((3-(4-fluorophenethyl)-1H-pyrazol-4-yl)methyl)-N^1-methylethane-1,2-diamine], which IC50 is on record?
The IC50 was 2.78 µM.

With `CN(CCN)Cc1c[nH]nc1/C=C/c1cccc(C(F)(F)F)c1` [Compound 16] as the molecule, how does the IC50 read?
Its IC50 is 0.11 µM.

With `COc1cc(/C=C/c2n[nH]cc2CN(C)CCN)cc(OC)c1` [Compound 11] as the molecule, how does the IC50 read?
Its IC50 is 0.05 µM.

With `CNCCN(C)Cc1c[nH]nc1/C=C/c1ccc(OC)cc1` [Compound 7] as the molecule, how does the IC50 read?
Its IC50 is 0.09 µM.

How did the IC50 turn out when `CNCCN(C)Cc1c[nH]nc1C#Cc1ccc(F)cc1` [Compound 4] was run?
The IC50 was 0.5 µM.

Which IC50 does the source give for `CNCCN(C)Cc1c[nH]nc1/C=C/c1ccc(-c2ccccc2)cc1` [Compound 5] here?
The IC50 was 0.31 µM.
